This is an account of results in ChEMBL document CHEMBL1671795, “Evaluation of endogenous fatty acid amides and their synthetic analogues as potential anti-inflammatory leads” (Bioorg Med Chem, 2011).

Data set [1] deals with HaCaT. The data set can be described thus: Antiinflammatory activity against IFN-gamma-stimulated human HaCaT cells assessed as inhibition of chemokine MDC production at 50 to 100 uM after 18 hrs by ELISA. The format is functional, cell-based. Background: An ELISA detects its analyte on a solid surface through an enzyme-linked reagent.
The subject of data set [2] is HaCaT. The data set can be described thus: Cytotoxicity against human HaCaT cells at 50 to 100 uM after 24 hrs by MTT assay. Type of data set: cell-based. For orientation: Formazan colour is commonly taken as a measure of viable cells.
Data set [3] has as its system RAW264.7. The experiment in a line: Cytotoxicity against mouse RAW264.7 cells at 50 uM after 24 hrs by MTT assay. Type of data set: cell-based. As to conditions: raw264.7, 24 h.
Data set [4] relates to RAW264.7. The data set can be described thus: Cytotoxicity against mouse RAW264.7 cells at 100 uM after 24 hrs by MTT assay. Type of data set: cell-based. As to conditions: raw264.7, 24 h.

As for `CCCCCCCC/C=C\CCCCCCCCCCCC(=O)NCCO`, the Activity entry in the data set on HaCaT [1] was “Non-toxic”; in the data set on HaCaT [2], “Toxic”.

Take `CCCCCCCCCCCCCCCC(=O)NCCCl`: the Activity result in the data set with HaCaT [1] was “Non-toxic”; with HaCaT [2], “Toxic”.

Turning to `CC/C=C\C/C=C\C/C=C\CCCCCCCC(=O)NC(C)C`, the Activity result in the data set on HaCaT [1] is “Non-toxic”; in the data set with HaCaT [2], “Toxic”.

In the case of `CCCCCCCC(=O)/C=C/CCCCCCCC(=O)NCCCl`, the Activity result in the data set with RAW264.7 [3] was “Toxic”; in the data set on RAW264.7 [4] it was “Toxic”; with HaCaT [1], “Non-toxic”; with HaCaT [2], “Toxic”.

Take `CCCCCCCCCCCCCCCC(=O)NCCO` [PALMIDROL]: the values for the Activity entry in the data set on HaCaT [1] and with HaCaT [2] were “Non-toxic” and “Toxic”, respectively.

As for `CCCCCCCC/C=C/C(=O)CCCCCCC(=O)NCCc1ccc(O)c(O)c1`, the Activity result was “Toxic” with RAW264.7 [3], “Toxic” in the data set with RAW264.7 [4], “Non-toxic” with HaCaT [1] and “Toxic” in the data set with HaCaT [2].

Turning to `CCCCCCCC(=O)/C=C/CCCCCCCC(=O)NC(C)C`, the Activity result is “Toxic” with RAW264.7 [3], “Toxic” with RAW264.7 [4], “Non-toxic” with HaCaT [1] and “Toxic” with HaCaT [2].

In the case of `CCCCCCC/C=C/C(=O)CCCCCCCC(=O)NCC(O)CO` (racemic), the Activity entry with RAW264.7 [3] was “Toxic”; with RAW264.7 [4] it was “Toxic”; in the data set on HaCaT [1], “Non-toxic”; in the data set with HaCaT [2], “Toxic”.

`CCCCCCC/C=C/C(=O)CCCCCCCC(=O)NCCCl`: the Activity entry in the data set on RAW264.7 [3] is “Toxic”; in the data set with RAW264.7 [4], “Toxic”; with HaCaT [1], “Non-toxic”; in the data set with HaCaT [2], “Toxic”.

`CCCCCCCC/C=C/C(=O)CCCCCCC(=O)NCC(O)CO` (racemic): the Activity entry in the data set on RAW264.7 [3] was “Toxic”; with RAW264.7 [4] it was “Toxic”; with HaCaT [1] it was “Non-toxic”; in the data set with HaCaT [2], “Toxic”.

As for `CCCCCCCC/C=C/C(=O)CCCCCCC(=O)NC(C)C`, the Activity result is “Toxic” in the data set with RAW264.7 [3], “Toxic” in the data set with RAW264.7 [4], “Non-toxic” with HaCaT [1] and “Toxic” in the data set on HaCaT [2].

Turning to `CCCCC/C=C\C/C=C\CCCCCCCC(=O)NC(C)C`, the Activity entry is “Non-toxic” in the data set on HaCaT [1] and “Toxic” in the data set with HaCaT [2].

Consider `CCCCCCCC(=O)/C=C/CCCCCCCC(=O)NCCO`, for which the Activity result in the data set with RAW264.7 [3] is “Toxic”; in the data set on RAW264.7 [4] it was “Toxic”; in the data set with HaCaT [1] it was “Non-toxic”; with HaCaT [2], “Toxic”.

For `CCCCC/C=C\C/C=C\CCCCCCCC(=O)NCCCl`, the figures for the Activity entry in the data set on HaCaT [1] and with HaCaT [2] were “Non-toxic” and “Toxic”, respectively.

Turning to `CCCCCCC/C=C/C(=O)CCCCCCCC(=O)NCCc1c[nH]c2ccc(O)cc12`, the Activity result was “Toxic” in the data set on RAW264.7 [3], “Toxic” with RAW264.7 [4], “Non-toxic” with HaCaT [1] and “Toxic” in the data set on HaCaT [2].

In the case of `CCCCC/C=C\C/C=C\CCCCCCCC(=O)NCC(=O)O` [LINOLEOYL GLYCINE], the Activity result with HaCaT [1] was “Non-toxic”; in the data set with HaCaT [2], “Toxic”.

For `CCCCCCCC/C=C\CCCCCCCC(=O)NC(C)C`, the results for the Activity entry in the data set with HaCaT [1] and in the data set with HaCaT [2] were “Non-toxic” and “Toxic”, respectively.

Regarding `CCCCCCCC/C=C\CCCCCCCCCCCC(=O)NCC(O)CO` (racemic), the values for the Activity result with HaCaT [1] and in the data set with HaCaT [2] were “Non-toxic” and “Toxic”, respectively.

Consider `CCCCCCCC/C=C\CCCCCCCC(=O)NCCCl`, for which the Activity result in the data set on HaCaT [1] is “Non-toxic”; in the data set on HaCaT [2], “Toxic”.

Regarding `CC/C=C\C/C=C\C/C=C\CCCCCCCC(=O)NCC(=O)O`, the Activity result in the data set with HaCaT [1] was “Non-toxic”; in the data set with HaCaT [2], “Toxic”.

As to `CCCCCCCC(=O)/C=C/CCCCCCCC(=O)NCCc1c[nH]c2ccc(O)cc12`, the Activity entry was “Toxic” with RAW264.7 [3], “Toxic” in the data set on RAW264.7 [4], “Non-toxic” in the data set with HaCaT [1] and “Toxic” in the data set on HaCaT [2].

As to `CC/C=C\C/C=C\C/C=C\CCCCCCCC(=O)O` [LINOLENIC ACID], the Activity entry with HaCaT [1] is “Non-toxic”; in the data set with HaCaT [2] it was “Toxic”.

For the compound `CC/C=C\C/C=C\C/C=C\CCCCCCCC(=O)NCCc1c[nH]c2ccc(O)cc12`, the Activity result in the data set on HaCaT [1] is “Non-toxic”; in the data set with HaCaT [2], “Toxic”.

Take `CC/C=C\C/C=C\C/C=C\CCCCCCCC(=O)N[C@H](C)CO`: the values for the Activity entry in the data set with HaCaT [1] and with HaCaT [2] were “Non-toxic” and “Toxic”, respectively.

For the compound `CC/C=C\C/C=C\C/C=C\CCCCCCCC(=O)NCCCl`, the Activity result in the data set with HaCaT [1] was “Non-toxic”; with HaCaT [2], “Toxic”.

In the case of `CCCCCCCC/C=C/C(=O)CCCCCCC(=O)N[C@H](C)CO`, the Activity entry is “Toxic” with RAW264.7 [3], “Toxic” with RAW264.7 [4], “Non-toxic” with HaCaT [1] and “Toxic” in the data set with HaCaT [2].

`CCCCCCC/C=C/C(=O)CCCCCCCC(=O)NC(C)C`: the Activity entry with RAW264.7 [3] was “Toxic”; in the data set with RAW264.7 [4], “Toxic”; with HaCaT [1] it was “Non-toxic”; in the data set on HaCaT [2], “Toxic”.

Turning to `CCCCC/C=C\C/C=C\CCCCCCCC(=O)NCC(O)CO` (racemic), the Activity entry was “Non-toxic” in the data set with HaCaT [1] and “Toxic” in the data set with HaCaT [2].

Regarding `CCCCC/C=C\C/C=C\CCCCCCCC(=O)NCCO` [LINOLEOYLETHANOLAMIDE], the values for the Activity result in the data set with HaCaT [1] and in the data set with HaCaT [2] were “Non-toxic” and “Toxic”, respectively.

With `CCCCCCCC/C=C\CCCCCCCCCCCC(=O)N[C@H](C)CO`, the Activity result in the data set with HaCaT [1] is “Non-toxic”; with HaCaT [2] it was “Toxic”.

Consider `CCCCCCCC/C=C/C(=O)CCCCCCC(=O)NCCCl`, for which the Activity result was “Toxic” with RAW264.7 [3], “Toxic” in the data set on RAW264.7 [4], “Non-toxic” in the data set on HaCaT [1] and “Toxic” with HaCaT [2].

`CCCCCCC/C=C/C(=O)CCCCCCCC(=O)N[C@H](C)CO`: the Activity result in the data set on RAW264.7 [3] is “Toxic”; in the data set with RAW264.7 [4], “Toxic”; with HaCaT [1], “Non-toxic”; in the data set on HaCaT [2] it was “Toxic”.

For `CCCCCCCCCCCCCCCC(=O)NCC(=O)O` [PALMITOYL GLYCINE], the figures for the Activity result with HaCaT [1] and in the data set on HaCaT [2] were “Non-toxic” and “Toxic”, respectively.

`CC/C=C\C/C=C\C/C=C\CCCCCCCC(=O)NCCO`: the Activity result in the data set with HaCaT [1] was “Non-toxic”; in the data set with HaCaT [2], “Toxic”.

Turning to `CCCCCCCCCCCCCCCC(=O)N[C@H](C)CO`, the Activity entry in the data set on HaCaT [1] was “Non-toxic”; in the data set with HaCaT [2] it was “Toxic”.

Turning to `CCCCCCC/C=C/C(=O)CCCCCCCC(=O)NCCO`, the Activity result was “Toxic” in the data set with RAW264.7 [3], “Toxic” with RAW264.7 [4], “Non-toxic” in the data set with HaCaT [1] and “Toxic” with HaCaT [2].

For `CCCCCCCCCCCCCCCC(=O)NC(C)C` [HEXADECANOIC ACID ISOPROPYLAMIDE], the Activity entry is “Non-toxic” in the data set on HaCaT [1] and “Toxic” in the data set with HaCaT [2].

Consider `CCCCCCCC/C=C\CCCCCCCCCCCC(=O)NCCCl`, for which the Activity entry in the data set with HaCaT [1] is “Non-toxic”; in the data set on HaCaT [2] it was “Toxic”.

For the compound `CCCCCCCC/C=C\CCCCCCCC(=O)NCC(=O)O` [OLEOYL GLYCINE], the Activity entry in the data set on HaCaT [1] is “Non-toxic”; in the data set with HaCaT [2], “Toxic”.

Turning to `CCCCCCC/C=C/C(=O)CCCCCCCC(=O)NCCc1ccc(O)c(O)c1`, the Activity result in the data set on RAW264.7 [3] is “Toxic”; with RAW264.7 [4], “Toxic”; with HaCaT [1], “Non-toxic”; in the data set on HaCaT [2], “Toxic”.

Consider `CCCCCCCC(=O)/C=C/CCCCCCCC(=O)NCC(O)CO` (racemic), for which the Activity entry with RAW264.7 [3] was “Toxic”; in the data set on RAW264.7 [4] it was “Toxic”; in the data set with HaCaT [1] it was “Non-toxic”; in the data set on HaCaT [2] it was “Toxic”.

As for `CCCCCCCC(=O)/C=C/CCCCCCCC(=O)N[C@H](C)CO`, the Activity entry in the data set on RAW264.7 [3] is “Toxic”; with RAW264.7 [4], “Toxic”; in the data set with HaCaT [1] it was “Non-toxic”; in the data set with HaCaT [2], “Toxic”.

For the compound `CCCCCCCCCCCCCCCC(=O)NCC(O)CO` (racemic), the figures for the Activity entry with HaCaT [1] and in the data set on HaCaT [2] were “Non-toxic” and “Toxic”, respectively.

Consider `CCCCCCCC/C=C/C(=O)CCCCCCC(=O)NCCc1c[nH]c2ccc(O)cc12`, for which the Activity entry in the data set on RAW264.7 [3] was “Toxic”; with RAW264.7 [4], “Toxic”; in the data set with HaCaT [1], “Non-toxic”; in the data set with HaCaT [2], “Toxic”.

For the compound `CCCCCCCC/C=C\CCCCCCCC(=O)NCC(O)CO` (racemic), the figures for the Activity result in the data set with HaCaT [1] and with HaCaT [2] were “Non-toxic” and “Toxic”, respectively.

Take `CCCCCCCC/C=C/C(=O)CCCCCCC(=O)NCCO`: the Activity result with RAW264.7 [3] is “Toxic”; with RAW264.7 [4], “Toxic”; in the data set with HaCaT [1], “Non-toxic”; in the data set with HaCaT [2], “Toxic”.

As for `CC/C=C\C/C=C\C/C=C\CCCCCCCC(=O)NCC(O)CO` (racemic), the Activity result in the data set on HaCaT [1] is “Non-toxic”; with HaCaT [2], “Toxic”.

As for `CCCCCCCC(=O)/C=C/CCCCCCCC(=O)NCCc1ccc(O)c(O)c1`, the Activity result was “Toxic” in the data set with RAW264.7 [3], “Toxic” in the data set with RAW264.7 [4], “Non-toxic” with HaCaT [1] and “Toxic” in the data set on HaCaT [2].

For `CCCCCCCC/C=C\CCCCCCCC(=O)NCCO` [OLEOYLETHANOLAMIDE], the values for the Activity entry with HaCaT [1] and in the data set on HaCaT [2] were “Non-toxic” and “Toxic”, respectively.

Take `CCCCCCCC/C=C\CCCCCCCC(=O)N[C@H](C)CO`: the values for the Activity entry in the data set on HaCaT [1] and in the data set with HaCaT [2] were “Non-toxic” and “Toxic”, respectively.

For `CCCCCCCC/C=C\CCCCCCCCCCCC(=O)NC(C)C`, the results for the Activity result with HaCaT [1] and in the data set on HaCaT [2] were “Non-toxic” and “Toxic”, respectively.

As for `CCCCC/C=C\C/C=C\CCCCCCCC(=O)N[C@H](C)CO`, the Activity entry was “Non-toxic” in the data set on HaCaT [1] and “Toxic” with HaCaT [2].
